Eight compounds from ChEMBL document CHEMBL5465560, “Selectivity Literature for EUbOPEN Chemogenomic Library” (2024) can be followed below.

In assay [1] the target is T1, Mitogen-activated protein kinase kinase kinase kinase 2 (Homo sapiens) (UniProt Q12851).
T1 sequence (whole entry): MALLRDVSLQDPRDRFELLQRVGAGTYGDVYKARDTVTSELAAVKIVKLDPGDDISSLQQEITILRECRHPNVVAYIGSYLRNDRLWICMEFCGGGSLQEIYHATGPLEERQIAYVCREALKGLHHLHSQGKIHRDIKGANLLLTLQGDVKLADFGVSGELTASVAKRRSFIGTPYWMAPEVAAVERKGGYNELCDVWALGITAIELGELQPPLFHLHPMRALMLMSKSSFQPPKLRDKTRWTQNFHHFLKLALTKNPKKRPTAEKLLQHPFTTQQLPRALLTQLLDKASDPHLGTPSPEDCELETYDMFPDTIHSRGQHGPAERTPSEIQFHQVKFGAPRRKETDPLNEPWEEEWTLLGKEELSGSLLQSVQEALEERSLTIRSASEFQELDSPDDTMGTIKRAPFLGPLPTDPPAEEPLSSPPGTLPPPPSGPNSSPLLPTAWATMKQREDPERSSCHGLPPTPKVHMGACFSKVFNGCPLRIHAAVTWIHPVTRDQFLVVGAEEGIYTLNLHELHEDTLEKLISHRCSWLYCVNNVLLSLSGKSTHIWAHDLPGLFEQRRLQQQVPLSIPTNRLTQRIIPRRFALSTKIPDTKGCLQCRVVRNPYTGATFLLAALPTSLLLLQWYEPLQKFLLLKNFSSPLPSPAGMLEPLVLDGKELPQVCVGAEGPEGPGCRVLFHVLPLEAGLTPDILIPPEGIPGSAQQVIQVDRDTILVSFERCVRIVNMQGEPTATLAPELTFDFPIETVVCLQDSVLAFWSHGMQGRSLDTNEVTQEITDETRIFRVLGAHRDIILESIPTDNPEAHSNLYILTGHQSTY
Put plainly: Selectivity interaction (KinomeScan (DiscoverX)) EUB0000607a MAP4K2. The note with it: at 10 µM.

Assay [2] concerns the target T2, Discoidin domain-containing receptor 2 (Homo sapiens) (UniProt Q16832).
T2 sequence (whole entry): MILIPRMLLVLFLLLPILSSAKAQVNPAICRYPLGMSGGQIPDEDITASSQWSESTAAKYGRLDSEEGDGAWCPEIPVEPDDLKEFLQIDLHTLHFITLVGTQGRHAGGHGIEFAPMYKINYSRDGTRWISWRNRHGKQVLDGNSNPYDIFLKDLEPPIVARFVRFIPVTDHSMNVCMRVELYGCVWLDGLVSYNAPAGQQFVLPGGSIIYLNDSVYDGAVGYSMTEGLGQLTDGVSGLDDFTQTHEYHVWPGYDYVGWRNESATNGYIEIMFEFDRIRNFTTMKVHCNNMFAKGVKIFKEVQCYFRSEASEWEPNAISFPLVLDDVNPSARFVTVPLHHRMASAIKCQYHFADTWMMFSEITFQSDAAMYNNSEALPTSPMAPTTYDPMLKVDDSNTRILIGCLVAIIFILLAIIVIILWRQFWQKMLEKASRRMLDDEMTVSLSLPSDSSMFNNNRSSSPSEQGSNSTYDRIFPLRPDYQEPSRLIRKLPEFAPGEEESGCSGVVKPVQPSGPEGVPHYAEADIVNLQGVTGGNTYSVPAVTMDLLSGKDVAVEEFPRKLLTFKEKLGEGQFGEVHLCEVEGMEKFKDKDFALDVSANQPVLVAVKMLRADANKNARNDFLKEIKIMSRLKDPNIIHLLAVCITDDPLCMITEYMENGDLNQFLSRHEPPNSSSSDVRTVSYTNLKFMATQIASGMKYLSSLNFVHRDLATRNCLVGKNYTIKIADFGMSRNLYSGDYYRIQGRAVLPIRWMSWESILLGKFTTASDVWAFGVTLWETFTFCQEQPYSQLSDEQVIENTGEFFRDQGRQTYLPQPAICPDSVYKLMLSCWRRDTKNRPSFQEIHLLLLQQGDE
Conditions: at 10 µM.

The target in assay [3] is STE20-like serine/threonine-protein kinase (Homo sapiens, UniProt Q9H2G2). Put plainly: Selectivity interaction (Kinase panel (Invitrogen)) EUB0000639a SLK. The note with it: at 200 nM.
Sequence of STE20-like serine/threonine-protein kinase (Q9H2G2 whole entry, looked up): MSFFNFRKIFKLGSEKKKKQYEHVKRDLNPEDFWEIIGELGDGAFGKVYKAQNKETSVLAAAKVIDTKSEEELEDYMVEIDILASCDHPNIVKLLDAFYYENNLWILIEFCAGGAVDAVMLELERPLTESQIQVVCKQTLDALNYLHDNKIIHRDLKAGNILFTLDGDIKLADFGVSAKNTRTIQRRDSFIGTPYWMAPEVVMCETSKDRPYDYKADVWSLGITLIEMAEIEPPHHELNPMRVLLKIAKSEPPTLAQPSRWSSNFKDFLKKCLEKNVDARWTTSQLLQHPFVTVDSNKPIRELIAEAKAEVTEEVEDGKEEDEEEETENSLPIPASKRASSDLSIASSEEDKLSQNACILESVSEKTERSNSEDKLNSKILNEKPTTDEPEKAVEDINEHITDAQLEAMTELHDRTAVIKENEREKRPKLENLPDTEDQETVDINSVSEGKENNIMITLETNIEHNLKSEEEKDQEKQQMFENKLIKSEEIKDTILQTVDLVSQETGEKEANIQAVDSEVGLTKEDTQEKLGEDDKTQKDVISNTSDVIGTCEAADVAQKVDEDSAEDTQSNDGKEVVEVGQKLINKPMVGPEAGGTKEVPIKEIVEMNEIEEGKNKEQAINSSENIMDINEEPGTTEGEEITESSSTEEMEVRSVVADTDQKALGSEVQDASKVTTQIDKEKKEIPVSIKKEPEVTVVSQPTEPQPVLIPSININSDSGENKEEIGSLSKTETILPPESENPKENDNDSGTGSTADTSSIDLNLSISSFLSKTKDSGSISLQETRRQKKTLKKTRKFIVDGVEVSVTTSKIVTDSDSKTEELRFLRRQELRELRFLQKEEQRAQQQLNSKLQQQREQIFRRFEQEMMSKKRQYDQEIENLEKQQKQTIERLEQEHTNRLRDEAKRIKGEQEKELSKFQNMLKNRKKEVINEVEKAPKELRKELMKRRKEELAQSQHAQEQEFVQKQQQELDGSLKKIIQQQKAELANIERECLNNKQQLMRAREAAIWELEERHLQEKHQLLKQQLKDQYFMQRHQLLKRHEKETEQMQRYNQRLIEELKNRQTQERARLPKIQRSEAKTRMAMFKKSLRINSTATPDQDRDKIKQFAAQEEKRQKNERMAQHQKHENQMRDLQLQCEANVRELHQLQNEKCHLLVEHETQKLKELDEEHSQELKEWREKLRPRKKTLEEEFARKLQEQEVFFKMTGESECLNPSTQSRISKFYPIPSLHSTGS
For assay [4], the target named is Mitogen-activated protein kinase kinase kinase 21 (Homo sapiens) (UniProt Q5TCX8). Kind of assay: Selectivity interaction (ActivX KiNativ screen (kinase selectivity in THP-1 cell lysates)) EUB0000639a MAP3K21. It is filed as subcellular. The note with it: lysate.
Sequence of Mitogen-activated protein kinase kinase kinase 21 (Homo sapiens) (Q5TCX8 whole entry, canonical isoform): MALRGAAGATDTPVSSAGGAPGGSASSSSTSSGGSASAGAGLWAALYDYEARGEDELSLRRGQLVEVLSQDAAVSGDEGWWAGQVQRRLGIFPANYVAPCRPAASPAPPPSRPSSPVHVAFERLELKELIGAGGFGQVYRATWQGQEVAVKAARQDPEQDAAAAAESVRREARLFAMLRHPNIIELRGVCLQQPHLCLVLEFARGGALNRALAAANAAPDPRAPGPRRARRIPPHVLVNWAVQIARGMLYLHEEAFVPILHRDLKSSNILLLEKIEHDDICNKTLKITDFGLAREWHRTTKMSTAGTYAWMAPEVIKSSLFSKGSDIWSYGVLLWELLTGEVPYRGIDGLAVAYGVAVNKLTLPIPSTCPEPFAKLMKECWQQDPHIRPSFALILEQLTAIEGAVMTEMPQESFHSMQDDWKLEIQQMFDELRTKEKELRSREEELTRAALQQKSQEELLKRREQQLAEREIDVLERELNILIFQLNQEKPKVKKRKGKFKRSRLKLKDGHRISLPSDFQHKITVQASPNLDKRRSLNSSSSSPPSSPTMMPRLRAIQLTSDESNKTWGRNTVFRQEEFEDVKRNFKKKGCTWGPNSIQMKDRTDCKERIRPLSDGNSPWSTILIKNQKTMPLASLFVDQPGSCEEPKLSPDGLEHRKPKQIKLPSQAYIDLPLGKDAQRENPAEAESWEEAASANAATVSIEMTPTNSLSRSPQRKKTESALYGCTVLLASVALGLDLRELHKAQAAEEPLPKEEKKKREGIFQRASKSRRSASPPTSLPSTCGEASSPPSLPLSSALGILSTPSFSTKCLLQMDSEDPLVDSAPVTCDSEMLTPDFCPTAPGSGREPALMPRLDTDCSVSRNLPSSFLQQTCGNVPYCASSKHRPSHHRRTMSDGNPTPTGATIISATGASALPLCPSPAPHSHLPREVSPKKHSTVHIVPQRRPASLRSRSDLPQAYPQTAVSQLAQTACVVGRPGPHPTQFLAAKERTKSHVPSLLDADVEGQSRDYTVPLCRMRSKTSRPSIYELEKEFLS
For assay [5], the target named is Phosphatidylinositol 4,5-bisphosphate 3-kinase catalytic subunit beta isoform (Homo sapiens) (UniProt P42338). Kind of assay: Selectivity interaction (ProQinase) EUB0000171b PIK3CB.
Sequence of Phosphatidylinositol 4,5-bisphosphate 3-kinase catalytic subunit beta isoform (Homo sapiens) (P42338 whole entry, looked up, canonical isoform): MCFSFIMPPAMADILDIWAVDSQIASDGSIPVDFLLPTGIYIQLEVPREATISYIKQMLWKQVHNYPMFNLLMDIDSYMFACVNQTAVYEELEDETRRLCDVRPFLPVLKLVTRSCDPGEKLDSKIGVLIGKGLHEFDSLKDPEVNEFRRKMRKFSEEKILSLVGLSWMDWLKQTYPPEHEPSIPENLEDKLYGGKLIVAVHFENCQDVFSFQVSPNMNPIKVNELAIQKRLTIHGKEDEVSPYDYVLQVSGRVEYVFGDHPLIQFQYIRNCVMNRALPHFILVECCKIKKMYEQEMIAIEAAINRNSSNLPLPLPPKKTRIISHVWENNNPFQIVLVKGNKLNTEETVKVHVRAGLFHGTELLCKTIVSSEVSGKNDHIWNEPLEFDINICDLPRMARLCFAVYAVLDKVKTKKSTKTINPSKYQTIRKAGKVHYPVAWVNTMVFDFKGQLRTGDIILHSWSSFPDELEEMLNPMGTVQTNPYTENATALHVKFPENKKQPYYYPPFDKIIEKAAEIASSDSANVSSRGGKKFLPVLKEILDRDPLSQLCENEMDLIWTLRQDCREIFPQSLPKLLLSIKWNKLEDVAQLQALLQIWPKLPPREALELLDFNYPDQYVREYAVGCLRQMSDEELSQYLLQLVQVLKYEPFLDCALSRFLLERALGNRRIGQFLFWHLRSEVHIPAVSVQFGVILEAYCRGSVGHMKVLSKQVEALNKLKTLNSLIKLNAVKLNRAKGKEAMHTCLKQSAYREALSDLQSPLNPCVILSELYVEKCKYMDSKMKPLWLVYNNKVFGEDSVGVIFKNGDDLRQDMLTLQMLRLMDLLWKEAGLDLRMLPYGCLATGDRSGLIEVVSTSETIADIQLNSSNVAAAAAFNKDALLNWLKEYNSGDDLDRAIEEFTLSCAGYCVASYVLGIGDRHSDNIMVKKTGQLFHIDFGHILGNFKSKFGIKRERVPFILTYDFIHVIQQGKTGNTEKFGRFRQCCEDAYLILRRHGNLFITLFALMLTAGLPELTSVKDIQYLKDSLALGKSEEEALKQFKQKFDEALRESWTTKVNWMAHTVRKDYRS
The target of assay [6] is T3, Serine/threonine-protein kinase ICK (Homo sapiens) (UniProt Q9UPZ9).
T3 sequence (whole entry): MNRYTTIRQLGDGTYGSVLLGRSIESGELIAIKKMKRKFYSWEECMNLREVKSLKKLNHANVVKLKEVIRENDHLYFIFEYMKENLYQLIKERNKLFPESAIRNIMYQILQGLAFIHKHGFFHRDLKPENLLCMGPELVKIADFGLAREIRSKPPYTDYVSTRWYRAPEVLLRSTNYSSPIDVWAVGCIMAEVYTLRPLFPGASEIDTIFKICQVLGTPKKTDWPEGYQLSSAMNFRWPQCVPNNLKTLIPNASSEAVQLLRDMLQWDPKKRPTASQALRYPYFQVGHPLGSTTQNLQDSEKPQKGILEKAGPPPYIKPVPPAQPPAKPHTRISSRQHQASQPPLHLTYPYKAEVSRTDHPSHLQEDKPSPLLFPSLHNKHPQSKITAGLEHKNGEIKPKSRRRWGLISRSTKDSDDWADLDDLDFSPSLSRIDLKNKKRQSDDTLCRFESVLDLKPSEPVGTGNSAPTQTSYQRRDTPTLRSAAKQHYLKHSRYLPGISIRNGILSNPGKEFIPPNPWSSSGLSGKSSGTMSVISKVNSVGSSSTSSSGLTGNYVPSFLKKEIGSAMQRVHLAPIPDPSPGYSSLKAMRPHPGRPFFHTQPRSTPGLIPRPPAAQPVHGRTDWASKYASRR
Put plainly: Selectivity interaction (Ambit KINOMEscan and KiNATiv profiling in Jurkat cells) EUB0000090b ICK. It is filed as cell-based. The note with it: at 1 µM.

In assay [7] the target is Homeodomain-interacting protein kinase 3 (Homo sapiens, UniProt Q9H422). Kind of assay: Selectivity interaction (KinomeScan (DiscoverX)) EUB0000618a HIPK3. The note with it: at 10 µM.
The target of assay [8] is Serine/threonine-protein kinase MARK1 (Homo sapiens) (UniProt Q9P0L2). Put plainly: Selectivity interaction (KinomeScan (DiscoverX)) EUB0001079a MARK1. The note with it: at 1 µM.
Sequence of Serine/threonine-protein kinase MARK1 (Homo sapiens) (Q9P0L2 whole entry, looked up): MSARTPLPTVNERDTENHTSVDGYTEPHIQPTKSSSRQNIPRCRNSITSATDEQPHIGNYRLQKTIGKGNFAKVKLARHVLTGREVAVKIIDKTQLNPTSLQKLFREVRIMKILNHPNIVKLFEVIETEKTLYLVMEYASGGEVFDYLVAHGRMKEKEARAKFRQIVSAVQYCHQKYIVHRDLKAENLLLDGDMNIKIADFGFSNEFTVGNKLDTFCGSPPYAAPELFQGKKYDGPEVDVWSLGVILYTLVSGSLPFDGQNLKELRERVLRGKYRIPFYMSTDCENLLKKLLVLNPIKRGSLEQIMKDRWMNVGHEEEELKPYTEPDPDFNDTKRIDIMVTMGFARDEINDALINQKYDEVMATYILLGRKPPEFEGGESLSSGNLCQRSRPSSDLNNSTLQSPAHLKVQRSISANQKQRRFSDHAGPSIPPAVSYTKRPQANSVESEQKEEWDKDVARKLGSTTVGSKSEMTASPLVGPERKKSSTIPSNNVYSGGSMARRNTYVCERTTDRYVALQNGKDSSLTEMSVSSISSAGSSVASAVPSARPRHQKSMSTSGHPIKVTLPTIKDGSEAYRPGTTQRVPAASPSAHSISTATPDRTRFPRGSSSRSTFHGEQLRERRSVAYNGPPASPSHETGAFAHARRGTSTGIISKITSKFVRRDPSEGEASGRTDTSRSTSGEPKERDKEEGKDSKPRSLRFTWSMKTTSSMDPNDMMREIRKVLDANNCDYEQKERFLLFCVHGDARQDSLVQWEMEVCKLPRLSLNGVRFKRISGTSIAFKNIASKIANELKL
Assay [9] deals with Bone morphogenetic protein receptor type-1B (Homo sapiens, UniProt O00238). Kind of assay: Selectivity interaction (KinomeScan (DiscoverX)) EUB0000229b BMPR1B. The note with it: at 10 µM.
Sequence of Bone morphogenetic protein receptor type-1B (O00238 whole entry): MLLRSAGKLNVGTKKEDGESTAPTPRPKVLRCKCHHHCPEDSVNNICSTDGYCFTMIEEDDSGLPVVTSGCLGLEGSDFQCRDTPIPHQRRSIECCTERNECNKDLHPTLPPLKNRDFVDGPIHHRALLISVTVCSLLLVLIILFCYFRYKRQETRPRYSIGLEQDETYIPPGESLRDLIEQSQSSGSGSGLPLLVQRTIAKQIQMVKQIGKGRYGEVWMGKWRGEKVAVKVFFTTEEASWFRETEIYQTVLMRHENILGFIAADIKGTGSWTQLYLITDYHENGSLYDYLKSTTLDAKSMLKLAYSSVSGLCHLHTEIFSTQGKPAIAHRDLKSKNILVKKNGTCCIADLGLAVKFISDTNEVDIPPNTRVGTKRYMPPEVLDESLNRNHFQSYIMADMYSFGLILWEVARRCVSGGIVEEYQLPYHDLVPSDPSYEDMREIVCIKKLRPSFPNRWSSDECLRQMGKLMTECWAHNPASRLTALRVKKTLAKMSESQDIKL

For the compound `CNC(=O)Nc1ccc(-c2nc(N3CC4CCC(C3)O4)c3cnn(C4CCC5(CC4)OCCO5)c3n2)cc1`, the % of control in [1] was found to be 100%.
On to `Cc1cc([C@@H](C)Nc2ccccc2C(=O)O)c2nc(N3CCOCC3)cc(=O)n2c1` [AZD-6482], for which the % of control in assay [2] came out at 83%.
Turning to `CC[C@@H]1[C@H](F)C(=O)N[C@@H]1COc1nccc2cc(C(N)=O)c(OC)cc12` [ZIMLOVISERTIB], the % of inhibition in assay [3] was -0.0851%; in assay [4] (at 0.01 µM) it was 7.8%; in assay [4] (at 0.04 µM) it was 2%; in assay [4] (at 0.2 µM) it was 4.6%; in assay [4] (at 1 µM) it was 14%; in assay [4] (at 5 µM), 17%.
Regarding `C=CC(=O)Nc1cccc(C(=O)Nc2ccc(Nc3cc(-c4[nH]c(SC)nc4C)ccn3)cc2)c1`, the % of control in assay [5] (at 1 µM) was determined as 138%; in [5] (at 5 µM) it was 166%.
`CN(C)C/C=C/C(=O)Nc1ccc(C(=O)N2CCCC(Nc3ncc(Cl)c(-c4c[nH]c5ccccc45)n3)C2)cc1` (centres undefined) displayed a % of control in assay [6] of 62%.
In assay [7], `O[C@H]1CC[C@H](Nc2ncc3nc(Nc4c(F)cc(F)cc4F)n([C@H]4CCOC4)c3n2)CC1` yielded a % of control of 95%.
Compound `Nc1cnc(N2CCc3cc(S(=O)(=O)Nc4c(F)cc(Cl)cc4F)cc(N4CCCC4=O)c32)nc1` [TP-020n] showed a % of control in [8] of 76%.
In turn, `COc1cc(N(C)c2ccnc3ccc(C(F)(F)F)cc23)cc(OC)c1OC` returned a % binding in assay [9] of 73%.
